Measurements reported in patent publication US20240254547A1, “HIGHLY ACCURATE […]” (KAO CORPORATION, priority 2018, published 2024).

Tested on: Genomic DNA from TA100 strain of Salmonella typhimurium (S. typhimurium) LT-2
Experiment: Genomic mutation analysis of mutagen-exposed TA100 strain by sequencing with consensus read sequences considering complementary strands
Type: cell-based
Details: ENU group
Procedure: Exposure of cells to ENU was performed in accordance with the pre-incubation method of the Ames test (K. Mortelmans et al. Mutat. Res.—Fundam. Mol. Mech. Mutagen. 455:29-60, 2000). TA100 strain was seeded in 2 mL of Nutrient Broth No. 2 (produced by Oxoid Limited), and subjected to shaking culture at 37° C. and 180 rpm for 4 hours to afford pre-culture solution with an O.D.660 value of 1.0 or higher. ENU (produced by Sigma-Aldrich Co. LLC.) was diluted with dimethylsulfoxide (DMSO; produced by Wako Pure Chemical Industries, Ltd.). Into test tubes, 100 μL of the ENU solution, 500 μL of 0.1 M phosphate buffer, and 100 μL of the pre-culture solution were added (amount of ENU: 62.5, 125, 250, 500, and 1,000 μg/tube), and the resultants were subjected to shaking culture at 100 rpm in a water bath at 37° C. for 20 minutes (ENU group). For a control group, 100 μL of solvent (DMSO) was added instead of the ENU solution. After shaking culture for 20 minutes, the test tubes each containing a culture solution were taken out of the water bath, and 50 μL of each culture solution was added to 2 mL of Nutrient Broth solution aliquoted in advance, and the resultant was further cultured in an incubator at 37° C. and 180 rpm for 14 hours, from which the bacterial suspensions were then collected and centrifuged at 7,500 rpm for 5 minutes, and the supernatants were removed to collect the bacterial cells.
From the bacterial cells obtained in 1) (control group and ENU group), total DNA was collected by using a DNeasy Blood & Tissue Kit (produced by QIAGEN) in accordance with the recommended protocol. The double-stranded DNA concentration of each DNA sample obtained was measured by using a Qubit3.0 Fluorometer (produced by Thermo Fisher Scientific) with a Qubit™ dsDNA BR Assay Kit attached thereto.
From each DNA sample (control group and ENU group) after being subjected to concentration measurement in 2), a plurality of samples each of which was to give 100 ng of DNA were prepared, and each sample was fragmented into pieces having a length of approximately 350 bp on average by using a DNA Shearing System ME220 (produced by Covaris Inc.) in accordance with the recommended protocol. The fragmented DNA obtained was subjected to library preparation by using a TruSeq Nano DNA Library Prep Kit (produced by Illumina, Inc., hereinafter abbreviated as TruSeq) in accordance with the recommended protocol.
In library preparation, the DNA fragments obtained were each labeled with adapter sequences each including a label sequence at a terminal, as described in Example 1. The resultant was subjected to PCR under different conditions listed in Table 1 to prepare libraries for sequencing, thus preparing labeled libraries for sequencing with different conditions. Adapter sequences attached to the TruSeq from Illumina, Inc. were used. […] Thus, one of two adapters was bound to each fragment in each library. […] Each of the resulting ligation reaction solutions was purified in accordance with the recommended protocol, and then subjected to concentration measurement for ligation products by using a High Sensitivity D5000 Kit in an Agilent 4200 TapeStation (produced by Agilent Technologies). […] The mixed solution obtained was subjected to purification through PCR in accordance with the recommended protocol. To adjust difference in amount of input DNA in PCR, each sample was amplified through PCR cycles the number of which is shown in Table 1 to adjust the amount of DNA in the library.
Each of the libraries prepared in 3) was subjected to sequencing by using a HiSeq 2500 (produced by Illumina, Inc.), where the read length was set to 2*125 bp for Library Nos. 1 to 8 shown in Table 1, and to 2*100 bp for Library Nos. 9 to 14. Sequencing data of approximately 10 Gbp were acquired on average per library.
Raw read sequences acquired through sequencing were edited and subjected to mutation analysis in accordance with the analysis flow illustrated above in Schematic Diagram 4. […]

Question: Which “GC to AT mutation frequency” value (10 Gbp sequencing data, Library No. 1, PCR input DNA 20000 amol) does the source give for `CCN(N=O)C(N)=O` [ENU, ethylnitrosourea] here?
Answer: Its value is 10.48 /10^5 bp.

Question: What about the “GC to AT mutation frequency” value (10 Gbp sequencing data, Library No. 4, PCR input DNA 2500 amol) of the same compound?
Answer: Its value is 37.70 /10^5 bp.

Question: And the “GC to AT mutation frequency” value (10 Gbp sequencing data, Library No. 5, PCR input DNA 1250 amol)?
Answer: Its value is 46.50 /10^5 bp.

Question: What about the “GC to AT mutation frequency” value (10 Gbp sequencing data, Library No. 6, PCR input DNA 625 amol) of the same compound?
Answer: Its value is 55.30 /10^5 bp.

Question: What about the “GC to AT mutation frequency” value (10 Gbp sequencing data, Library No. 7, PCR input DNA 313 amol) of the same compound?
Answer: Its value is 56.57 /10^5 bp.

Question: And the “GC to AT mutation frequency” value (10 Gbp sequencing data, Library No. 8, PCR input DNA 156 amol)?
Answer: The value was 60.42 /10^5 bp.

Question: And the “GC to AT mutation frequency” value (10 Gbp sequencing data, Library No. 9, PCR input DNA 156 amol)?
Answer: The value was 61.01 /10^5 bp.

Question: What about the “GC to AT mutation frequency” value (10 Gbp sequencing data, Library No. 10, PCR input DNA 78 amol) of the same compound?
Answer: The value was 63.62 /10^5 bp.

Question: What about the “GC to AT mutation frequency” value (10 Gbp sequencing data, Library No. 11, PCR input DNA 39 amol) of the same compound?
Answer: Its value is 63.38 /10^5 bp.

Question: What about the “GC to AT mutation frequency” value (10 Gbp sequencing data, Library No. 12, PCR input DNA 20 amol) of the same compound?
Answer: The value was 63.89 /10^5 bp.

Question: What about the “GC to AT mutation frequency” value (10 Gbp sequencing data, Library No. 13, PCR input DNA 10 amol) of the same compound?
Answer: The value was 63.35 /10^5 bp.

Question: And the “GC to AT mutation frequency” value (10 Gbp sequencing data, Library No. 14, PCR input DNA 5 amol)?
Answer: The value was 60.05 /10^5 bp.

Question: What about the “Frequency of GC→AT mutation compared with the other mutation patterns” value (10 Gbp sequencing data, each library) of the same compound?
Answer: Its value is “highest”.

Question: What about the “Relative mutation frequency to 20 amol (GC to AT)” value (“Relative mutation frequency” for short) (Library No. 1, PCR input DNA 20000 amol) of the same compound?
Answer: The value was 16.41.

Question: What about the “Relative mutation frequency” value (Library No. 4, PCR input DNA 2500 amol) of the same compound?
Answer: The value was 59.01.

Question: And the “Relative mutation frequency” value (Library No. 5, PCR input DNA 1250 amol)?
Answer: The value was 72.79.

Question: And the “Relative mutation frequency” value (Library No. 6, PCR input DNA 625 amol)?
Answer: The value was 86.56.

Question: What about the “Relative mutation frequency” value (Library No. 7, PCR input DNA 313 amol) of the same compound?
Answer: Its value is 88.55.

Question: And the “Relative mutation frequency” value (Library No. 8, PCR input DNA 156 amol)?
Answer: The value was 94.57.

Question: What about the “Relative mutation frequency” value (Library No. 9, PCR input DNA 156 amol) of the same compound?
Answer: Its value is 95.50.

Question: And the “Relative mutation frequency” value (Library No. 10, PCR input DNA 78 amol)?
Answer: The value was 99.59.

Question: And the “Relative mutation frequency” value (Library No. 11, PCR input DNA 39 amol)?
Answer: Its value is 99.20.

Question: What about the “Relative mutation frequency” value (Library No. 12, PCR input DNA 20 amol (reference)) of the same compound?
Answer: Its value is 100.00.

Question: And the “Relative mutation frequency” value (Library No. 13, PCR input DNA 10 amol)?
Answer: The value was 99.16.

Question: And the “Relative mutation frequency” value (Library No. 14, PCR input DNA 5 amol)?
Answer: Its value is 94.00.
